The text below walks through data of patent US11136336B2, “Thienopyrimidones” (Boehringer Ingelheim International GmbH, priority 2019, dated 2021).

The target of one data set is human TRPA1 ion channel (Homo sapiens (Human), UniProt O75762). As to the kind of experiment: Assay A: TRPA1 cell assay (FLIPR, AITC-induced intracellular calcium). The data set is classed as cell-based. The note with it: HEK293 cells over-expressing human TRPA1; agonist AITC 10 μM; FLIPRtetra; read-out: hTRPA1 IC50. How it is done: A human HEK293 cell line over-expressing the human TRPA1 ion channel (Perkin Elmer, Product No. AX-004-PCL) was used as a test system for compound efficacy and potency. Compound activity was determined by measuring the effect of compounds on intracellular calcium concentration induced by AITC (Allylisothiocyanat) agonism in a FLIPRtetra system (Molecular Devices).
The cells were obtained as frozen cells in cryo-vials and stored until use at −150° C. Cells were grown in culture medium (MEM/EBSS medium with 10% FCS and 0.4 mg/ML Geneticin). […] For sub-culturing cells were detached from flasks by Versene. At the day before the assay, cells were detached, washed twice with medium (MEM/EBSS medium with 10% FCS) and 20000 cells in 20p/well were seeded to Poly D-Lysin biocoated 384-well plates (black, clear bottom, Cat. 356697) from Corning. Plates were incubated for 24 hours at 37° C./5% CO2 before use in the assay.
The test compounds were dissolved in 100% DMSO at a concentration of 10 mM and in a first step diluted in DMSO to a concentration of 5 mM, followed by serial dilution steps in 100% DMSO. Dilution factor and number of dilution steps may vary according to needs. Typically 8 different concentrations by 1:5 dilutions were prepared, further intermediate dilutions (1:20) of the substances were carried out with HBSS/HEPES buffer (1×HEPES, Cat.14065 from Gibco, 20 mM HEPES, Cat. 83264 from SIGMA, 0.1% BSA Cat.11926 from Invitrogen, pH 7,4
At the assay day cells were washed 3× with assay puffer, 20 μL buffer remained in the wells after washing. 10 μL Ca6 kit (Cat.R8191 MolecularDevices) loading buffer in HBSS/HEPES was added to the cells and the plates were incubated with lid for 120 minutes at 37°/5% CO2. 10 μL of compound or controls in HBSS/HEPES buffer/5% DMSO from the intermediate dilution plate were carefully added to the wells. […] Finally 10 μL of the agonist AITC 50 μM dissolved in HBSS/HEPES buffer/0.05% DMSO (final concentration 10 μM) was added to the wells followed by an additional read on the FLIPRtetra device for 10 minutes. The area under the signal curve (AUC) after AITC addition was used for IC50/% inhibition calculations
Each assay microtiter plate contained wells with vehicle (1% DMSO) controls instead of compound as controls for AITC induced luminescence (100% CTL; high controls) and wells with vehicle controls without AITC as controls for non-specific changes in luminescence (0% CTL; low controls).
The analysis of the data was performed by the calculation of the area under signal curve of the individual wells. Based on this values the % value for the measurement of each substance concentration was calculated (AUC(sample)−AUC(low))*100/(AUC(high)−AUC(low)) using MegaLab software (in house development). The IC50 values were calculated from the % control values using MegaLab software. Calculation: [y=(ad)/(1+(x/c)^b)+d], a=low value, d=high value; x=conc M; c=IC50 M; b=hill; y=% ctrl

The nature of data set [1]: Assay B: Microsomal clearance. It counts as in vitro ADME. The note with it: pooled human liver microsomes, 1 mg/ml protein, 1 μM test compound, 37° C. The method, then: Assay B: Microsomal Clearance:
The metabolic degradation of the test compound is assayed at 37° C. with pooled liver microsomes. The final incubation volume of 100 μl per time point contains TRIS buffer pH 7.6 at RT (0.1 M), magnesium chloride (5 mM), microsomal protein (1 mg/ml) and the test compound at a final concentration of 1 μM.
Following a short preincubation period at 37° C., the reactions are initiated by addition of beta-nicotinamide adenine dinucleotide phosphate, reduced form (NADPH, 1 mM) and terminated by transferring an aliquot into solvent after different time points (0, 5, 15, 30, 60 min). Additionally, the NADPH-independent degradation is monitored in incubations without NADPH, terminated at the last time point. The [%] remaining test compound after NADPH independent incubation is reflected by the parameter c(control) (metabolic stability). The quenched incubations are pelleted by centrifugation (10000 g, 5 min).
An aliquot of the supernatant is assayed by LC-MS/MS for the amount of parent compound. The half-life (t1/2 INVITRO) is determined by the slope of the semilogarithmic plot of the concentration-time profile.
In general terms: Liver microsomes are a subcellular fraction often used to study metabolism.

The nature of data set [2]: Assay C: Hepatocyte clearance. The data set is classed as in vitro ADME. The note with it: human hepatocyte suspension, 1 μM test compound, six hours. How it is done:
Assay C: Hepatocyte Clearance
The metabolic degradation of the test compound is assayed in a hepatocyte suspension. Hepatocytes (cryopreserved) are incubated in. Dulbecco's modified eagle medium (supplemented with 3.5 μg glucagon/500 mL, 2.5 mg insulin/500 mL and 3.75 mg/500 mL hydrocortison) containing 5% or 50% species serum.
Following a 30 min preincubation in an incubator (37° C., 10% CO2) 5 μl of test compound solution (80 μM; from 2 mM in DMSO stock solution diluted 1:25 with medium) are added into 395 μl hepatocyte suspension (cell density in the range 0.25-5 Mio cells/mL depending on the species, typically 1 Mio cells/mL; final concentration of test compound 1 μM, final DMSO concentration 0.05%).
The cells are incubated for six hours (incubator, orbital shaker) and samples (25 μl) are taken at 0, 0.5, 1, 2, 4 and 6 hours. Samples are transferred into acetonitrile and pelleted by centrifugation (5 min). The supernatant is transferred to a new 96-deepwell plate, evaporated under nitrogen and resuspended.
Decline of parent compound is analyzed by HPLC-MS/MS
CLint is calculated as follows CL_[…]=Dose/AUC=(C0/CD)/(AUD+clast/k)×1000/60. C0: initial concentration in the incubation [μM], CD: cell density of vital cells [10e6cells/mL], AUD: area under the data [μM×h], clast: concentration of last data point [μM], k: slope of the regression line for parent decline [h−1].
The calculated in vitro hepatic intrinsic clearance can be scaled up to the intrinsic in vivo hepatic Clearance and used to predict hepatic in vivo blood clearance (CL) by the use of a liver model (well stirred model).

Molecules are shown by their SMILES.

Sequence of human TRPA1 ion channel (O75762 whole entry): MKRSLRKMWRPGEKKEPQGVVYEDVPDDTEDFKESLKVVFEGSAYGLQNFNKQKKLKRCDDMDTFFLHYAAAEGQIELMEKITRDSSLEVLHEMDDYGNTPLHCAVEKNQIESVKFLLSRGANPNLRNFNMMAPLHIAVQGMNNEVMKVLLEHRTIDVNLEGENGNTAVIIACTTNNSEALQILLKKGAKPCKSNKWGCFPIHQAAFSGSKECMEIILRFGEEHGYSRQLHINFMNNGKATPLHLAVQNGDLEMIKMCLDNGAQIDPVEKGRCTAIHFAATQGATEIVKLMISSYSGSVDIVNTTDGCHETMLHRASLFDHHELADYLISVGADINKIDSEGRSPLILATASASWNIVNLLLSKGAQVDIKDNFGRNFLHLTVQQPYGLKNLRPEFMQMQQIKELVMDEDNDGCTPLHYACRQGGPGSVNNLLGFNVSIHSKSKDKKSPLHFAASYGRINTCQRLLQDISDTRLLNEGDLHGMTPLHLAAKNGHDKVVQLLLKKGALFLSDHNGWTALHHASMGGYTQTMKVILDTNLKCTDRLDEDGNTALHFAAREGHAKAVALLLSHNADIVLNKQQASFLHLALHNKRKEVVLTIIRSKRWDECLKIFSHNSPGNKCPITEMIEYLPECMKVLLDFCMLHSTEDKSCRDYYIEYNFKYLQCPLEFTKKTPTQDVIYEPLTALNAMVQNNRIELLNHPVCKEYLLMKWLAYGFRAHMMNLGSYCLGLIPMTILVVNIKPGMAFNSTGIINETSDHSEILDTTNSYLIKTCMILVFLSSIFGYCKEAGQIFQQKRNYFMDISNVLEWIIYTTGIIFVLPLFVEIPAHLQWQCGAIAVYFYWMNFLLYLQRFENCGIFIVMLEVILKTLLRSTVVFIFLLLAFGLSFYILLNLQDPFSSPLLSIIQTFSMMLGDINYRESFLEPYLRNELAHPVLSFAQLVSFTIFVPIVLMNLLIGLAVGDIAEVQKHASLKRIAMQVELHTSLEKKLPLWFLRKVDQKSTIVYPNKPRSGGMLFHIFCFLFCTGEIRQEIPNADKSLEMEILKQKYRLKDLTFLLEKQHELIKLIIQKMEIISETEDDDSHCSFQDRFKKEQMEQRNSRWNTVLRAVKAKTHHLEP

Regarding `Cc1c(C(=O)NCC(C)(C)O)sc2ncn(Cc3nc(C[C@H](O)c4ccc(Cl)cc4)no3)c(=O)c12` [Example 13], the IC50 at human TRPA1 ion channel is 37 nM. Moreover, the “human LM [% Qh]” value in data set [1] was less than 23 % Qh. For the same compound, the “human Hepatocytes [% Qh]” value in data set [2] is given as 18 % Qh.

Turning to `Cc1c(C(N)=O)sc2ncn(Cc3nc(C[C@H](O)c4ccc(F)cc4)no3)c(=O)c12` [Example 4], at human TRPA1 ion channel, the concentration for half-maximal inhibition (IC50) came out at 33 nM. For the same compound, in data set [1], the “human LM [% Qh]” value is recorded as less than 23 % Qh. Further, the “human Hepatocytes [% Qh]” value in data set [2] amounted to 29 % Qh.

Turning to `Cc1c(C(N)=O)sc2ncn(Cc3nc(C[C@H](O)c4ccc(F)c(F)c4)no3)c(=O)c12` [Example 5], the IC50 on human TRPA1 ion channel was found to be 48 nM. Also, the “human LM [% Qh]” value in data set [1] is reported as less than 23 % Qh. The “human Hepatocytes [% Qh]” value in data set [2] amounted to 37 % Qh.

For `CNC(=O)c1sc2ncn(Cc3nc(C[C@H](O)c4ccc(Cl)cc4)no3)c(=O)c2c1C` [Example 11], the IC50 on human TRPA1 ion channel was determined as 10 nM. Moreover, the “human LM [% Qh]” value in data set [1] is less than 23 % Qh. For the same compound, the “human Hepatocytes [% Qh]” value in data set [2] worked out at 29 % Qh.

Take `Cc1c(C(N)=O)sc2ncn(Cc3nc(C[C@H](O)c4ccc5c(c4)OCO5)no3)c(=O)c12` [Example 8]: the IC50 on human TRPA1 ion channel stood at 56 nM. For the same compound, the “human LM [% Qh]” value in data set [1] was less than 23 % Qh. Besides, the “human Hepatocytes [% Qh]” value in data set [2] was determined as 24 % Qh.

Consider `Cc1ccc([C@@H](O)Cc2noc(Cn3cnc4sc(C(N)=O)c(C)c4c3=O)n2)cc1` [Example 2], for which the IC50 at human TRPA1 ion channel came to 20 nM. Also, the “human LM [% Qh]” value in data set [1] is listed as less than 23 % Qh. Also, the “human Hepatocytes [% Qh]” value in data set [2] came out at 29 % Qh.

Consider `NC(=O)c1sc2ncn(Cc3nc(C[C@H](O)c4ccc(Cl)cc4)no3)c(=O)c2c1Cl` [Example 16], for which, on human TRPA1 ion channel, the IC50 was determined as 16 nM. Moreover, the “human LM [% Qh]” value in data set [1] is recorded as less than 23 % Qh. Further, in data set [2], the “human Hepatocytes [% Qh]” value is on record as 39 % Qh.

For the compound `Cc1c(C(N)=O)sc2ncn(Cc3nc(C[C@H](O)c4cc(F)cc(F)c4)no3)c(=O)c12` [Example 6], the IC50 on human TRPA1 ion channel amounted to 48 nM. In data set [1], the “human LM [% Qh]” value is recorded as less than 23 % Qh. The “human Hepatocytes [% Qh]” value in data set [2] is 23 % Qh.

`CNC(=O)c1sc2ncn(Cc3nc(C[C@H](O)c4ccc(F)c(F)c4)no3)c(=O)c2c1C` [Example 14]: the IC50 at human TRPA1 ion channel was 33 nM. Further, the “human LM [% Qh]” value in data set [1] is reported as less than 23 % Qh. The “human Hepatocytes [% Qh]” value in data set [2] is 24 % Qh.

For the compound `CNC(=O)c1sc2ncn(Cc3nc(C[C@H](O)c4ccc5c(c4)OCO5)no3)c(=O)c2c1C` [Example 9], the IC50 on human TRPA1 ion channel amounted to 78 nM. The “human LM [% Qh]” value in data set [1] is 29 % Qh. Also, in data set [2], the “human Hepatocytes [% Qh]” value came out at 24 % Qh.

As for `Cc1c(C(N)=O)sc2ncn(Cc3nc(C[C@H](O)c4cc5ccccc5o4)no3)c(=O)c12` [Example 3], on human TRPA1 ion channel, the IC50 was found to be 19 nM. The “human LM [% Qh]” value in data set [1] was less than 23 % Qh. Also, the “human Hepatocytes [% Qh]” value in data set [2] was determined as 36 % Qh.

In the case of `CNC(=O)c1sc2ncn(Cc3nc(C[C@H](O)c4ccc(F)cc4)no3)c(=O)c2c1C` [Example 10], the “human LM [% Qh]” value in data set [1] is less than 23 % Qh. In data set [2], the “human Hepatocytes [% Qh]” value was determined as 25 % Qh.

On to `Cc1c(C(N)=O)sc2ncn(Cc3nc(C[C@H](O)c4ccc(Cl)cc4)no3)c(=O)c12` [Example 1, 3-({3-[(2S)-2-(4-chlorophenyl)-2-hydroxyethyl]-1,2,4-oxadiazol-5-yl}methyl)-5-methyl-4-oxo-3H,4H-thieno[2,3-d]pyrimidine-6-carboxamide], for which the IC50 on human TRPA1 ion channel is 13 nM. Besides, in data set [1], the “human LM [% Qh]” value is 29 % Qh. Moreover, the “human Hepatocytes [% Qh]” value in data set [2] stood at 25 % Qh.

As to `O=C1NCCc2c1sc1ncn(Cc3nc(C[C@H](O)c4ccc(Cl)cc4)no3)c(=O)c21` [Example 15], on human TRPA1 ion channel, the IC50 turned out to be 9 nM. Also, the “human LM [% Qh]” value in data set [1] was less than 23 % Qh. In data set [2], the “human Hepatocytes [% Qh]” value was 31 % Qh.

With `Cc1c(C(=O)NCC(F)F)sc2ncn(Cc3nc(C[C@H](O)c4ccc(Cl)cc4)no3)c(=O)c12` [Example 12], the half-maximal inhibitory concentration (IC50) on human TRPA1 ion channel was 15 nM. In addition, the “human LM [% Qh]” value in data set [1] was 24 % Qh. Also, the “human Hepatocytes [% Qh]” value in data set [2] is on record as 36 % Qh.

With `Cc1c(C(N)=O)sc2ncn(Cc3nc(C[C@H](O)c4ccc5c(c4)OC(F)(F)O5)no3)c(=O)c12` [Example 7], the IC50 at human TRPA1 ion channel came out at 34 nM. Also, the “human LM [% Qh]” value in data set [1] was 23 % Qh. Moreover, the “human Hepatocytes [% Qh]” value in data set [2] is 39 % Qh.

A word on the IC50: it is the point on the concentration scale where inhibition reaches its midpoint.
